Laboratory results as given in patent US8232584B2 (priority 2005, dated 2012).
Where two headings read alike, the source gives them in different places.

Key:
[1] = tested on: Ab2, monoclonal antibody receptor cross reactive to f-PSA and PSA-ACT; format: binding
[2] = tested on: monoclonal antibodies for PSA (Ab1); format: binding
[3] = format: binding; details: BT 5 ng/ml; PSA 100 ng/ml; BSA 10 microgram/ml; phosphate buffer pH 6.7
[4] = format: binding; details: CT 5 ng/ml; PSA 100 ng/ml; BSA 10 microgram/ml; phosphate buffer pH 6.7
[5] = f-PSA 1700 pg/ml, p-type silicon nanowire

Substance | Conductance Change NW2-Ab2 ([1]; PSA-ACT 0.32 pg/ml) [nS] | Conductance Change NW2-Ab2 ([1]; PSA-ACT 3.2 pg/ml) [nS] | Conductance Change NW2-Ab2 ([1]; PSA-ACT 320 pg/ml) [nS] | Conductance Change NW2-Ab2 ([1]; PSA-ACT 3200 pg/ml) [nS] | Conductance Change NW1-Ab1 ([2]; f-PSA 0.085 pg/ml) [nS] | Conductance Change NW1-Ab1 ([2]; f-PSA 0.85 pg/ml) [nS] | Conductance Change NW1-Ab1 ([2]; f-PSA 8.5 pg/ml) [nS] | Conductance Change NW1-Ab1 ([2]; f-PSA 850 pg/ml) [nS] | Conductance Change NW1-Ab1 [2, 5] [nS] | Conductance Change NW2-Ab2 ([1]; f-PSA 0.085 pg/ml) [nS] | Conductance Change NW2-Ab2 ([1]; f-PSA 0.85 pg/ml) [nS] | Conductance Change NW2-Ab2 ([1]; f-PSA 8.5 pg/ml) [nS] | Conductance Change NW2-Ab2 ([1]; f-PSA 850 pg/ml) [nS] | Conductance Change NW2-Ab2 [1, 5] [nS] | conductance response to injection [3] | conductance response to injection [4]
PSA-ACT: PSA-alpha-1-antichymotrypsin complex, cancer marker | 19 | 67 | 124 | 143 | – | – | – | – | – | – | – | – | – | – | – | –
f-PSA: free prostate specific antigen, cancer marker protein, purchased from Calbiochem | – | – | – | – | 15 | 45 | 98 | 185 | 192 | 10 | 50 | 81 | 132 | 154 | no response was observed | no response was observed
